Read-outs that look alike come from different tables or passages of the source.
How the values were obtained:
Type in all cases: cell-based
[1] = test system: Linezolid-Resistant Staphylococcus aureus Isolates; experiment: MIC assay (NCCLS broth dilution), LRSA isolates; conditions: for MIC: Staphylococcus aureus
Method in brief: (§1)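 MIC is read as the value from NCCLS-standard broth dilution in Mueller Hinton II medium. Each agent spanned 11 two-fold dilutions, with novobiocin paired to tetracycline or minocycline at a 2.5:1 ratio reflecting serum levels.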

[2] = test system: Unconfirmed Vancomycin-intermediate Staphylococcus aureus Isolates; experiment: MIC assay (NCCLS broth dilution), unconfirmed VISA isolates
Method in brief: as §1

[3] = test system: Vancomycin-intermediate Staphylococcus epidermidis Isolates; experiment: MIC assay (NCCLS broth dilution), VISE isolates
Method in brief: as §1

[4] = test system: Methicillin-Resistant Staphylococcus aureus Isolates; experiment: MIC assay (NCCLS broth dilution), MRSA clinical isolates; conditions: for MIC: Staphylococcus aureus
Method in brief: as §1

[5] = test system: Unconfirmed Vancomycin-intermediate Staphylococcus epidermidis Isolates; experiment: MIC assay (NCCLS broth dilution), unconfirmed VISE isolates; conditions: for MIC: Staphylococcus epidermidis
Method in brief: as §1

[6] = test system: Enterococcus faecalis (ATCC 29212); experiment: MIC assay, quality control strain E. faecalis ATCC 29212; conditions: ATCC29212, read-out: Minimal Inhibitory Concentration, quality control, E. faecalis ATCC 29212, repeat runs 22FEB06-09MAR06, combinations at 2.5:1
Method in brief: as §1

[7] = test system: Vancomycin-intermediate Staphylococcus aureus Isolates; experiment: MIC assay (NCCLS broth dilution), VISA isolates
Method in brief: as §1

[8] = Staphylococcus aureus, read-out: Minimal Inhibitory Concentration

CN[C@H](CC(C)C)C(=O)N[C@H]1C(=O)N[C@@H](CC(N)=O)C(=O)N[C@H]2C(=O)N[C@H]3C(=O)N[C@H](C(=O)N[C@H](C(=O)O)c4cc(O)cc(O)c4-c4cc3ccc4O)[C@H](O)c3ccc(c(Cl)c3)Oc3cc2cc(c3O[C@@H]2O[C@H](CO)[C@@H](O)[C@H](O)[C@H]2O[C@H]2C[C@](C)(N)[C@H](O)[C@H](C)O2)Oc2ccc(cc2Cl)[C@H]1O [VA, vancomycin]
MIC Range ([1]; 3 LRSA isolates, combinations at 2.5:1): 0.5 to 1 µg/mL | MIC ([1]; read-out: Minimal Inhibitory Concentration, LRSA isolate 1651, 24FEB06): 0.5 µg/mL | MIC ([1]; read-out: Minimal Inhibitory Concentration, LRSA isolate 1652, 24FEB06): 1 µg/mL | MIC ([1]; read-out: Minimal Inhibitory Concentration, LRSA isolate 1725, 24FEB06): 1 µg/mL | MIC Range ([2]; 6 unconfirmed VISA isolates (vancomycin MIC 4 ug/ml), combinations at 2.5:1): 4 µg/mL | MIC [2, 8]: 4 µg/mL | Minimal Inhibitory Concentration ([2]; Unconfirmed VISA isolate 2014, 03MAR06): 4 µg/mL | Minimal Inhibitory Concentration ([2]; Unconfirmed VISA isolate 2015, 03MAR06): 4 µg/mL | Minimal Inhibitory Concentration ([2]; Unconfirmed VISA isolate 2016, 03MAR06): 4 µg/mL | Minimal Inhibitory Concentration ([2]; Unconfirmed VISA isolate 2017, 03MAR06): 4 µg/mL | Minimal Inhibitory Concentration ([2]; Unconfirmed VISA isolate 2019, 03MAR06): 4 µg/mL | MIC Range ([3]; 4 VISE isolates, combinations at 2.5:1): 8 µg/mL | MIC ([3]; Staphylococcus epidermidis, read-out: Minimal Inhibitory Concentration): 8 µg/mL | Minimal Inhibitory Concentration ([3]; VISE isolate 2020, 09MAR06): 8 µg/mL | Minimal Inhibitory Concentration ([3]; VISE isolate 2021, 09MAR06): 8 µg/mL | Minimal Inhibitory Concentration ([3]; VISE isolate 2023, 03MAR06): 8 µg/mL | MIC Range ([4]; 52 MRSA isolates, combinations at 2.5:1, given as NB/partner): .5 to 2 µg/mL | MIC ([4]; read-out: Minimal Inhibitory Concentration, MRSA isolate 757, 24FEB06): 1 µg/mL | MIC ([4]; read-out: Minimal Inhibitory Concentration, MRSA isolate 758, 03MAR06): 1 µg/mL | MIC ([4]; read-out: Minimal Inhibitory Concentration, MRSA isolate 758, 24FEB06): 1 µg/mL | MIC ([4]; read-out: Minimal Inhibitory Concentration, MRSA isolate 760, 03MAR06): 1 µg/mL | MIC ([4]; read-out: Minimal Inhibitory Concentration, MRSA isolate 760, 24FEB06): 1 µg/mL | MIC ([4]; read-out: Minimal Inhibitory Concentration, MRSA isolate 763, 22FEB06): 1 µg/mL | MIC ([4]; read-out: Minimal Inhibitory Concentration, MRSA isolate 765, 22FEB06): 0.5 µg/mL | MIC ([4]; read-out: Minimal Inhibitory Concentration, MRSA isolate 766, 22FEB06): 0.5 µg/mL | MIC ([4]; read-out: Minimal Inhibitory Concentration, MRSA isolate 767, 22FEB06): 0.5 µg/mL | MIC ([4]; read-out: Minimal Inhibitory Concentration, MRSA isolate 768, 22FEB06): 0.5 µg/mL | MIC ([4]; read-out: Minimal Inhibitory Concentration, MRSA isolate 769, 22FEB06): 0.5 µg/mL | MIC ([4]; read-out: Minimal Inhibitory Concentration, MRSA isolate 770, 22FEB06): 0.5 µg/mL | MIC ([4]; read-out: Minimal Inhibitory Concentration, MRSA isolate 771, 22FEB06): 1 µg/mL | MIC ([4]; read-out: Minimal Inhibitory Concentration, MRSA isolate 772, 22FEB06): 0.5 µg/mL | MIC ([4]; read-out: Minimal Inhibitory Concentration, MRSA isolate 773, 24FEB06): 0.5 µg/mL | MIC ([4]; read-out: Minimal Inhibitory Concentration, MRSA isolate 774, 24FEB06): 1 µg/mL | MIC ([4]; read-out: Minimal Inhibitory Concentration, MRSA isolate 775, 24FEB06): 1 µg/mL | MIC ([4]; read-out: Minimal Inhibitory Concentration, MRSA isolate 776, 24FEB06): 1 µg/mL | MIC ([4]; read-out: Minimal Inhibitory Concentration, MRSA isolate 777, 24FEB06): 0.5 µg/mL | MIC ([4]; read-out: Minimal Inhibitory Concentration, MRSA isolate 778, 24FEB06): 1 µg/mL | MIC ([4]; read-out: Minimal Inhibitory Concentration, MRSA isolate 886, 24FEB06): 1 µg/mL | MIC ([4]; read-out: Minimal Inhibitory Concentration, MRSA isolate 887, 24FEB06): 0.5 µg/mL | MIC ([4]; read-out: Minimal Inhibitory Concentration, MRSA isolate 888, 24FEB06): 1 µg/mL | MIC ([4]; read-out: Minimal Inhibitory Concentration, MRSA isolate 889, 24FEB06): 1 µg/mL | MIC ([4]; read-out: Minimal Inhibitory Concentration, MRSA isolate 1004, 24FEB06): 1 µg/mL | MIC ([4]; read-out: Minimal Inhibitory Concentration, MRSA isolate 1010, 22FEB06): 0.5 µg/mL | MIC ([4]; read-out: Minimal Inhibitory Concentration, MRSA isolate 1012, 22FEB06): 0.5 µg/mL | MIC ([4]; read-out: Minimal Inhibitory Concentration, MRSA isolate 1013, 22FEB06): 0.5 µg/mL | MIC ([4]; read-out: Minimal Inhibitory Concentration, MRSA isolate 1014, 22FEB06): 0.5 µg/mL | MIC ([4]; read-out: Minimal Inhibitory Concentration, MRSA isolate 1015, 22FEB06): 0.5 µg/mL | MIC ([4]; read-out: Minimal Inhibitory Concentration, MRSA isolate 1016, 22FEB06): 0.5 µg/mL | MIC ([4]; read-out: Minimal Inhibitory Concentration, MRSA isolate 1017, 22FEB06): 0.5 µg/mL | MIC ([4]; read-out: Minimal Inhibitory Concentration, MRSA isolate 1021, 22FEB06): 0.5 µg/mL | MIC ([4]; read-out: Minimal Inhibitory Concentration, MRSA isolate 1022, 22FEB06): 0.5 µg/mL | MIC ([4]; read-out: Minimal Inhibitory Concentration, MRSA isolate 1023, 22FEB06): 0.5 µg/mL | MIC ([4]; read-out: Minimal Inhibitory Concentration, MRSA isolate 1024, 22FEB06): 0.5 µg/mL | MIC ([4]; read-out: Minimal Inhibitory Concentration, MRSA isolate 1025, 22FEB06): 1 µg/mL | MIC ([4]; read-out: Minimal Inhibitory Concentration, MRSA isolate 1135, 22FEB06): 0.5 µg/mL | MIC ([4]; read-out: Minimal Inhibitory Concentration, MRSA isolate 1136, 22FEB06): 0.5 µg/mL | MIC ([4]; read-out: Minimal Inhibitory Concentration, MRSA isolate 1137, 22FEB06): 0.5 µg/mL | MIC ([4]; read-out: Minimal Inhibitory Concentration, MRSA isolate 1138, 22FEB06): 0.5 µg/mL | MIC ([4]; read-out: Minimal Inhibitory Concentration, MRSA isolate 1222, 03MAR06): 1 µg/mL | MIC ([4]; read-out: Minimal Inhibitory Concentration, MRSA isolate 1222, 24FEB06): 1 µg/mL | MIC ([4]; read-out: Minimal Inhibitory Concentration, MRSA isolate 1653, 03MAR06): 1 µg/mL | MIC ([4]; read-out: Minimal Inhibitory Concentration, MRSA isolate 1658, 03MAR06): 0.5 µg/mL | MIC ([4]; read-out: Minimal Inhibitory Concentration, MRSA isolate 1659, 03MAR06): 1 µg/mL | MIC ([4]; read-out: Minimal Inhibitory Concentration, MRSA isolate 1661, 03MAR06): 1 µg/mL | MIC ([4]; read-out: Minimal Inhibitory Concentration, MRSA isolate 1729, 03MAR06): 2 µg/mL | MIC ([4]; read-out: Minimal Inhibitory Concentration, MRSA isolate 1730, 24FEB06): 1 µg/mL | MIC ([4]; read-out: Minimal Inhibitory Concentration, MRSA isolate 2009, 24FEB06): 2 µg/mL | MIC ([4]; read-out: Minimal Inhibitory Concentration, MRSA isolate 2010, 24FEB06): 0.5 µg/mL | MIC ([4]; read-out: Minimal Inhibitory Concentration, MRSA isolate 2011, 24FEB06): 1 µg/mL | MIC Range ([5]; 3 unconfirmed VISE isolates, combinations at 2.5:1): 1 to 4 µg/mL | MIC ([5]; read-out: Minimal Inhibitory Concentration, Unconfirmed VISE isolate 2024, 09MAR06): 2 µg/mL | MIC ([5]; read-out: Minimal Inhibitory Concentration, Unconfirmed VISE isolate 2025, 09MAR06): 4 µg/mL | MIC ([5]; read-out: Minimal Inhibitory Concentration, Unconfirmed VISE isolate 2026, 03MAR06): 4 µg/mL | MIC [6]: 2 µg/mL | MIC Range ([7]; 2 VISA isolates, combinations at 2.5:1, given as NB/partner): 8 µg/mL | MIC [7, 8]: 8 µg/mL | Minimal Inhibitory Concentration ([7]; VISA isolate 2018, 03MAR06): 8 µg/mL

Reference: US20070281992A1, “COMBINATION OF GYRASE B INHIBITORS AND PROTEIN SYNTHESIS INHIBITORS AND USES THEREOF” (priority 2006, published 2007)
